In US6365628B1 (Thia Medica AS, priority 1998, dated 2002):

Experiments:
Wistar rats = test: Lipid lowering effect in normal Wistar rats (Example 4); type: in vivo, rat; conditions: gavage once daily for 7 days
Protocol: Phospholipids were measured by the enzymatic method of bioMérieux, Marcy-l {grave over ( )}Etoile, France, Triacylglycerol by the Technicon Method no. SA4-0324L90, USA and Cholesterol by the Technicon Method no. SA4-0305L90, USA.
Male Wistar rats, weighing 180-200 g at the start of the experiment, were housed individually in metal wire cages in a room maintained at 12 h light-dark cycles and a constant temperature of 20±3° C. The animals were acclimatised for one week under these conditions before the start of the experiments.
TTA, TSA and eicosapentaenoic acid (EPA) were suspended in 0.5% (w/v) carboxymethyl cellulose (CMC). Six animals were used for each treatment, and a 0.5% CMC solution was administrated to the rats as control. After administration of the test compound, the rats were fasted for 12 hours and anaesthetised with haloethan. The EPA and the fatty acid derivatives were administered by gastric intubation (gavage) once daily for 7 days. Blood samples were collected by cardiac puncture, and lipid concentrations in plasma were determined as outlined in the method section.

male Wistar rats = test: Hepatic levels of triacylglycerol in rats fed fatty acid analogues (Example 17); type: in vivo, rat; conditions: no prefeeding
Description: Even an increased hepatic level of triacylglycerol may be relieved by TTA. Feeding rats with an inhibitor of fatty acid oxidation will increase the level of hepatic triacylglycerol resulting in fatty liver. Tetradecyl-4-thia propionic acid (TTP) is a fatty acid analogue with a sulphur atom in the 4 position. This analogue inhibits the β-oxidation of fatty acids due to the formation of a mitochondrial inhibitor. Feeding rats with this analogue results in the formation of fatty. However, if the rats are fed with a combination of TTA and TTP, the formation of fatty liver is avoided (Table 8). This provides evidence that TTA may be used for the treatment of conditions with an increased hepatic level of triacylglycerol. Male Wistar rats had free access to water and rat maintenance chow. They were fed palmitic acid or fatty acid analogues suspended in 0.5% CMC for 6 days. In some experiments TTA or TTP were fed for 3 days before feeding both for 6 days. At the end of the experiment the rats were fasted overnight, killed, the liver removed and homogenized. Triacylglycerol was measured in the homogenate.

[1] = test system: rat liver mitochondrial β-oxidation; test: Mitochondrial β-oxidation in rat liver, fatty acid analogues with S in different positions (Example 18); type: in vivo; conditions: [1-14C]-palmitoyl-L-carnitine as substrate
Protocol: Freshly isolated livers from individual old Zucker rats, were homogenised in ice-cold sucrose buffer (0.25 M sucrose, 10 mM HEPES (pH 7.4) and 2 mM EDTA). Post-nuclear and mitochondrial fractions were prepared using preparative differential centrifugation according to DeDuve et al. (De Duve, C., et al., Biochem. J., 60, 604-617 1955.) Modifications, purity and yield were as described earlier (Garras, A., et al., Biochim. Biophys. Acta, 1255, 154-160 1995.). Acid soluble products were measured in post-nuclear and mitochondrial enriched fractions, using [1-^14C]-palmitoyl-CoA and [1-^14C]-palmitoyl-L-carnitine (Radiochemical Centre, Amersham, England) as substrates as described earlier (Willumsen, N., et al., J. Lipid Res., 34, 13-22 1993. Carnitine palmitoyltransferase-I and -II activities were measured in the post-nuclear and mitochondrial fractions essentially as described by Bremer (Bremer, J., Biochim. Biophys. Acta, 665, 628-631 1981.) and 3-hydroxy-3-methylglutharyl-CoA synthase was measured according to Clinkenbeard et al. (Clinkenbeard, K. D., et al., J. Biol. Chem, 250, 3108-3116 1975.) in the mitochondrial fractions.
The mitochondrial β-oxidation is measured as in example 16 with the use of [1-^14C]-palmitoyl-L-carnitine as substrates.

Salmonella typhimurium = test: Test for mutagenic activity in Salmonella typhimurium strains; type: cell-based; conditions: 3-1000 mg/plate (TTA) 2-5000 mg/plate (TSA)
Description: (§1) Tests for mutagenic activity have been performed by Covance Laboratories Limited, England. […] Furthermore, TTA was not mutagenic when tested in mouse lymphoma cells […] L5178Y.

Escherichia coli = test: Test for mutagenic activity in Escherichia coli strains; type: cell-based; conditions: 3-1000 mg/plate (TTA) 2-5000 mg/plate (TSA)
Description: as §1

[2] = test system: chinese hamster ovary cells; test: Chromosomal aberrations in cultured chinese hamster ovary cells; type: cell-based; conditions: doses tested 12-140 mg/ml
[3] = dose 1500 mg/day/kg body weight

CC/C=C\C/C=C\C/C=C\C/C=C\C/C=C\CCCC(=O)O [EPA, eicosapentaenoic acid, reference compound]
Plasma lipids (% reduction of control) cholesterol (Wistar rats; [3]): 18 % reduction of control
Plasma lipids (% reduction of control) triglycerides (Wistar rats; [3]): 20 % reduction of control

CCCCCCCCCCCCCCCC(=O)O [Palm, palmitic acid]
Hepatic triacylglycerol TG (μmol/g) (male Wistar rats; palmitic acid for 6 days): 10,9 μmol/g
Mitochondrial β-oxidation activity (nmol/min/mg protein) [1]: 0,47 ± 0,06 nmol/min/mg protein

Tetradecylselenoacetic acid [TSA]
Induction of mutations in strains of Salmonella typhimurium (Salmonella typhimurium): did not induce mutations
Induction of mutations in strains of Escherichia coli (Escherichia coli): did not induce mutations
Chromosomal aberrations in cultured chinese hamster ovary cells [2]: no aberrations were induced
Plasma lipids (% reduction of control) cholesterol (Wistar rats; dose 15 mg/day/kg body weight): 20 % reduction of control
Plasma lipids (% reduction of control) triglycerides (Wistar rats; dose 15 mg/day/kg body weight): 25 % reduction of control

CCCCCCCCCCCCCCSCCC(=O)O
Hepatic triacylglycerol TG (μmol/g) (male Wistar rats; TTP 300 mg/kg/day for 6 days): 95,4 ± 14,7 μmol/g
